From EP0536208B1, “1,2-DIHYDRO-3H-DIBENZISOQUINOLINE-1,3-DIONE ANTICANCER AGENTS” (RESEARCH CORPORATION TECHNOLOGIES, INC., priority 1990, dated 1992)
Converted amounts (≈) assume the structure as drawn. Like-named read-outs stand apart in the source and are kept apart here.

Tests used:
[1] = system: P-388/ADR (adriamycin-Resis-tant); assay: Survival study in tumor-bearing mice, P-388/adriamycin resistant model; format: in vivo; conditions: 10^6 cells in DBA mice; 15 mg/kg; d1,5,9; intraperitoneally
Source text: (§1) Thus, in the lower level resistant cell lines, such as the ten-fold mitomycin C resistant L1210 and the tenfold adriamycin resistant 2780 ovarian cancer, Compound 1 maintained its complete activity as shown in Table II. The anti-tumor activity of compounds of the present invention in in vivo mouse murine models were studied. 3) Survival Studies In Tumor-Bearing Mice: 3.1 P-388 Leukemia Modles: One million P-388 leukemia cells originally obtained from American Type Culture Collection (Rockville, MD) are implanted into the peritoneum of adult DBA-2J male mice (Jackson Laboratories, Bar Harbor, ME). Twenty four hours later, drugs diluted in physiological saline are injected intraperitoneally at a volume of 0.1 mL/10 g body weight. The mice (10/group) are then followed for survival daily and compared to untreated tumor bearing mice. […] The perpendicular widths of the tumors are measured by caliper thrice weekly and converted to an estimated tumor mass according to the formula: ((1 X W)^2)/(2)= grams of tumor. [formula] wherein • W = width of tumor • l = length of tumor Tumor growth delay is calculated as the difference in days for tumors in treated mice to reach an estimated mass 750 mg or 1.5 g compared to that in untreated controls: Days to reach 750 mg (Treated - Control) = Days of Tumor Growth Delay [formula] […]

Colon-38 Adenocarcinoma = assay: Tumor growth delay in mice, Colon-38 model; format: in vivo; conditions: 20mg implants in C57B/mice; 15 mg/kg; d3,6; intraperitoneally
Source text: as §1

FRESH HUMAN TUMORS = assay: Colony forming assay in fresh human tumors, all tumor types; format: cell-based; conditions: Total of all tumor types; .001 ug/mL continuously; tumor cell survival of less than 50% of control
Description: The clonogenic assays were conducted in accordance with the procedure described hereinbelow: 1) Colony Forming Assays in Soft Agar: Fresh human or murine tumors are disaggregated into single cell suspensions using mechanical, hypoosmotic and/or enzymatic (trypsin) methods. The single cells (about 5 X 10^4-10^5) are plated in 35 mm plastic petri dishes onto a 1 ml "feeder layer" of 0.3% agar dissolved in growth medium containing 5-10% vol/vol of heat-inactivated fetal bovine serum, molten 0.3% agar and the antibiotics penicillin (100 u/mL) and streptomycin (100 ug/mL). Drug exposures can be performed for one hour or continuously (drugs added to final plating medium). Tumor cell colonies > 60 uM in size are counted by automated image analysis after 10-20 days of incubation in a humidified, 5-10% CO2-gassed environment maintained at 37°C. Inhibition of colony formation is calculated based on comparisons to control (untreated) plates wherein the growth of hundreds of colonies/plate is typical. […]
Fresh human tumor specimens disaggregated to single cell suspensions and exposed to .001 ug/mL of drug continuously. Percent survival represents the fraction of tumor colonies (> 60 uM size) obtained after drug treatment compared to untreated cells of the same tumor. […] Each tumor sample is analyzed in three different petri dishes (i.e., n = 3 for each sample).

L-1210/Murine Leukemia = assay: In vitro tumor cell viability assay using MTT dye; format: cell-based; conditions: Mus musculus
Description: (§2) Compounds of the present invention were tested for their in vitro activity in tumor cells sensitive and resistant to standard anti-cancer agents. The tumor cell lines used in this protocol are 8226 human Myeloma^1; 8226/Dox-40^2, L-1210/Murine Leukemia, multidrug resistant L-210/^3, 2780 Human Ovarian Cancer and 2780/AD^4. Each of these resistant cell lines is known as a multidrug resistant or "MDR" cell line. These cell lines produce a 170,00 molecular weight membrane protein termed the P-glycoprotein which acts as an active drug efflux pump. Thus, once a cell produces the P-glycoprotein, it has the capability of pumping out of the cell a large variety of unrelated natural products. […] The protocol for measuring the effectiveness of compounds of the present invention is as follows: 2) In Vitro Tumor Cell Viability Assays Using MTT-Dye: Tumors are processed into a single cell suspension as described above. The cells are plated at a concentration of 3-5 X 10^4/1 mL well into plastic 96-well plates. […] Afterwards the medium containing the drug is removed, the cells are "washed" by centrifugation in fresh medium or phosphate-buffered saline (pH 7.4). A tetrazolium dye is then added (3,4,5-dimethylthiazol-2-yl)-2,5-diphenyl tetrazolium bromide (MTT). This dye forms a colored formazan product upon activation by mitochondrial reductases in viable cells. Typically, the formazan product is solubilized in acid-propanol or DMSO. The intensity of the color is proportional to viable cell numbers and this is quantitated by spectrophotometric absorbance ([…]) on a micro ELISA plate reader. Test results are calibrated in % control absorbance from untreated tumor cells (Mossman T: J Immunol Meth 65:55-63, 1983). Using the above procedure, Compound 1 was tested for its cytotoxic activity with respect to various tumor cell lines.

8226 Human Myeloma = assay: In vitro tumor cell viability assay using MTT dye; format: cell-based
Description: as §2

[2] = system: 2780 Human Ovarian Cancer; assay: In vitro tumor cell viability assay using MTT dye; format: cell-based; conditions: MTT dye reduction
Description: as §2

IC50 (L-1210/Murine Leukemia; 144 h, Sensitive L1210, six day MTT assay, continuous drug exposure, read-out: Concentration for 50% inhibition of tumor cells): 2.5 ng/mL (≈ 0.00785 µM)
IC50 (L-1210/Murine Leukemia; L1210, 96 h, L-1210/Murine Leukemia, 4-day drug exposure, MTT dye reduction, read-out: Activity (IC50)): 3 ng/mL (≈ 0.00942 µM)
IC50 (L-1210/Murine Leukemia; L1210 Leukemia Cells Sensitive, continuous exposure, MTT dye assay, read-out: IC50 VALUES): 2.8 ng/mL (≈ 0.00879 µM)
IC50 (8226 Human Myeloma; 96 h, 8226 Human Myeloma, 4-day drug exposure, MTT dye reduction, read-out: Activity (IC50)): 11 ng/mL (≈ 0.0346 µM)
IC50 (8226 Human Myeloma; Homo sapiens, 8226 Myeloma Cells Sensitive, continuous exposure, MTT dye assay, read-out: IC50 VALUES): 10 ng/mL (≈ 0.0314 µM)
IC50 [2]: 4000 ng/mL (≈ 12.6 µM)
SMILES: CN(C)CCN1C(=O)c2cccc3cc4ccccc4c(c23)C1=O [Compound 1, 2-[2'-(dimethylamino)ethyl]-1,2-dihydro-3H-dibenz(deh)isoquinoline-1,3-dione]
Experimental Activity, ILS (Percentage Increased Lifespan) [1]: 33 ILS
Experimental Activity, Days of Tumor Growth Delay (Colon-38 Adenocarcinoma): 6 days TT
Overall Response (FRESH HUMAN TUMORS): 51%
